Like-named read-outs stand apart in the source and are kept apart here. Values belong to the compound of their own block, whether it stands above or below them.
Legend:
[1] = in vivo; details: male, Sprague Dawley, rat, 5 mg/kg
Description: (§1) The combo dose was prepared by mixing both by 1:1 to yield a concentration of 5 mg/mL for each compound (pH˜6) for intravenous and oral administration. The obtained solution was clear and colourless.
(§2) Male Sprague Dawley rats (body weight: 170 g to 220 g) were used in this study. Before the pharmacokinetic studies, animals were randomly assigned to the treatment groups.
(§3) The plasma samples and the dose formulation were stored at −20° C. until bioanalysis.
(§4) Plasma samples (0.1 mL) were transferred to Eppendorff tube, then 20 μL methanol, and 300 μL IS solution (50 ng/mL) were added to it. After Vortexing for 1 min and centrifuging for 5 min at 15,000 rpm, 5 μL of supernatant was injected into LC/MS/MS.
(§5) The concentrations in plasma below the limit of quantitation (LOQ=5 ng/mL) were designated as zero. The pharmacokinetic data analysis was performed using noncompartmental analysis modules in WinNonlin2.0.

[2] = male, Sprague Dawley, rat, in vivo, 5 mg/kg
Description: as §1, §2, §3, §4, §5

[3] = test system: mtDNA-encoded protein synthesis; experiment: Mitochondria Toxicity Study (Complex IV/Frataxin ratio in HepG2 cells); details: conclusion in words
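Throughout, for Cmax: drug levels in rat plasma quantified by LC/MS/MS after a combined two-compound formulation, quantitation limit 5 ng/mL with lower values set to zero, parameters from noncompartmental analysis.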
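Throughout, for Plasma Concentration Mean: drug levels in rat plasma quantified by LC/MS/MS after a combined two-compound formulation, quantitation limit 5 ng/mL with lower values set to zero, parameters from noncompartmental analysis.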
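Throughout, for Vd: drug levels in rat plasma quantified by LC/MS/MS after a combined two-compound formulation, quantitation limit 5 ng/mL with lower values set to zero, parameters from noncompartmental analysis.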
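Throughout, for volume of distribution at terminal phase as % of total body water: drug levels in rat plasma quantified by LC/MS/MS after a combined two-compound formulation, quantitation limit 5 ng/mL with lower values set to zero, parameters from noncompartmental analysis.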

- Vd ([1]; iv): 0.76 L/kg
- clearance ([1]; iv): 9.17 mL/min/kg
- concentration at 12 hr ([1]; iv): 0 ng/mL
- concentration at 24 hr ([1]; iv): 0 ng/mL
- AUC(0-inf) ([1]; po): 6940 ng·h/mL
- Cmax ([1]; po): 2370 ng/mL
- concentration at 10 hr ([1]; po): 0 ng/mL
- concentration at 12 hr ([1]; po): 0 ng/mL
- concentration at 24 hr ([1]; po): 0 ng/mL
- volume of distribution at terminal phase as % of total body water ([2]; iv): 131.34%
- Plasma Concentration Mean ([2]; iv, 0.25 hr): 4607.18 ng/mL
- Plasma Concentration Mean ([2]; iv, 0.5 hr): 3776.24 ng/mL
- Plasma Concentration Mean ([2]; iv, 1 hr): 2796.88 ng/mL
- Plasma Concentration Mean ([2]; iv, 2 hr): 1436.16 ng/mL
- Plasma Concentration Mean ([2]; iv, 4 hr): 320.08 ng/mL
- Plasma Concentration Mean ([2]; iv, 6 hr): 63.05 ng/mL
- Plasma Concentration Mean ([2]; iv, 8 hr): 19.45 ng/mL
- Plasma Concentration Mean ([2]; iv, 10 hr): 6.33 ng/mL
- Plasma Concentration ([2]; iv, 12 hr): 0 ng/mL
- Plasma Concentration ([2]; iv, 24 hr): 0 ng/mL
- Plasma Concentration Mean ([2]; po, 0.25 hr): 2152.89 ng/mL
- Plasma Concentration Mean ([2]; po, 0.5 hr): 2180.60 ng/mL
- Plasma Concentration Mean ([2]; po, 1 hr): 1892.82 ng/mL
- Plasma Concentration Mean ([2]; po, 2 hr): 1337.56 ng/mL
- Plasma Concentration Mean ([2]; po, 4 hr): 612.50 ng/mL
- Plasma Concentration Mean ([2]; po, 6 hr): 224.99 ng/mL
- Plasma Concentration Mean ([2]; po, 8 hr): 71.33 ng/mL
- Plasma Concentration Mean ([2]; po, 10 hr): 19.92 ng/mL
- Plasma Concentration Mean ([2]; po, 12 hr): 1.72 ng/mL
- Plasma Concentration ([2]; po, 24 hr): 0.00 ng/mL
SMILES: CC(=O)NC[C@H]1CN(c2ccc(N3CCOCC3)c(F)c2)C(=O)O1 [linezolid]

- concentration at 10 hr ([1]; iv): 0 ng/mL
- concentration at 12 hr ([1]; po): 0 ng/mL
- volume of distribution at terminal phase as % of total body water ([2]; iv): 113.43%
- Plasma Concentration ([2]; po, 12 hr): 0.00 ng/mL
SMILES: [2H]C1([2H])CN(c2ccc(N3C[C@H](CNC(C)=O)OC3=O)cc2F)CC([2H])([2H])O1 [compound 10, (S)—N-((3-(3-Fluoro-4-(2,2,6,6-d4-morpholino)phenyl)-2-oxooxazolidin-5-yl)methyl)acetamide]
- mitochondria toxicity [3]: comparable to that of linezolid
